Among the data in patent publication US20260315452A1, “PROTEASE INHIBITORS AND USES THEREOF” (priority 2023, published 2026) are IC50 values, retold here.

Some results are limits rather than exact numbers.

For this assay, the target named is SARS-CoV-2 3CLpro (Severe acute respiratory syndrome coronavirus 2, UniProt P0DTD1). Nature of the assay: biochemical. To be noted: inhibition of SARS-CoV-2 3CLpro; 15 nM 3CLpro, 25 μM fluorogenic substrate, 37° C.; read-out: Inhibitory Activity (IC50).
What is called IC50 is the midpoint of a concentration-inhibition curve. As to `COc1cncc(C(=O)N2CCC3(CCN(c4c(C(=O)NC5CC(F)(F)C5)cc(Br)cc4[N+](=O)[O-])C3)C2)c1` (centres unmarked) [Compound 23, 5-bromo-N-(3,3-difluorocyclobutyl)-2-(7-(5-methoxynicotinoyl)-2,7-diazaspiro[4.4]nonan-2-yl)-3-nitrobenzamide], the half-inhibitory concentration (IC50) fell in the range of 1000 to 10000 nM.
As to `CNC(=O)c1cc(Br)cc([N+](=O)[O-])c1N[C@H]1CN(C(=O)c2cncc(-n3cccn3)c2)CCC1(F)F` [Compound 39, (S)-2-((1-(5-(1H-pyrazol-1-yl)nicotinoyl)-4,4-difluoropiperidin-3-yl)amino)-5-bromo-N-methyl-3-nitrobenzamide], the IC50 lay within 100 to 1000 nM.
To `O=C(c1cc(Cl)cc([N+](=O)[O-])c1N[C@H]1CN(C(=O)c2cncc3cccnc23)CCC1(F)F)N1CC(O)C1` [Compound 112, (S)-(5-chloro-2-((4,4-difluoro-1-(1,6-naphthyridine-8-carbonyl)piperidin-3-yl)amino)-3-nitrophenyl)(3-hydroxyazetidin-1-yl)methanone] belongs below 100 nM; to `O=C(O)c1cc(Br)cc([N+](=O)[O-])c1N[C@@H]1CCCC[C@@H]1NC(=O)c1cncc2ccccc12` [Compound 52, 5-bromo-2-(((1R, 2S)-2-(isoquinoline-4-carboxamido)cyclohexyl)amino)-3-nitrobenzoic acid], 1000 to 10000 nM; to `CNC(=O)c1cc(Br)cc([N+](=O)[O-])c1N[C@@H]1CCCC[C@@H]1NC(=O)c1cncc(CNC(=O)OC(C)(C)C)c1` [Compound 5, tert-butyl ((5-(((1S, 2R)-2-((4-bromo-2-(methylcarbamoyl)-6-nitrophenyl)amino)cyclohexyl)carbamoyl)pyridin-3-yl)methyl)carbamate], at least 10000 nM.
As to `O=C(c1cc(Br)cc(C(F)(F)F)c1N[C@H]1CN(C(=O)c2cncc3ccccc23)CCC1(F)F)N1CC(O)C1` [Compound 173, (S)-(5-bromo-2-((4,4-difluoro-1-(isoquinoline-4-carbonyl)piperidin-3-yl)amino)-3-(trifluoromethyl)phenyl)(3-hydroxyazetidin-1-yl)methanone], the IC50 is below 100 nM.
The figure for `CNC(=O)c1cc(Br)cc([N+](=O)[O-])c1N[C@H]1CN(C(=O)c2cncc3cccnc23)CCC1(F)F` [Compound 107, (S)-5-bromo-2-((4,4-difluoro-1-(1,6-naphthyridine-8-carbonyl)piperidin-3-yl)amino)-N-methyl-3-nitrobenzamide] is below 100 nM; for `O=C(NC1CC(F)(F)C1)c1cc(Br)cc([N+](=O)[O-])c1N[C@@H]1COC[C@@H]1NC(=O)c1cncc2ccccc12` [Compound 137, N-((3R,4S)-4-((4-bromo-2-((3,3-difluorocyclobutyl)carbamoyl)-6-nitrophenyl)amino)tetrahydrofuran-3-yl)isoquinoline-4-carboxamide] it is 1000 to 10000 nM.
Take `CNC(=O)c1cc(Cl)cc([N+](=O)[O-])c1N[C@H]1CN(C(=O)c2cncc3ncccc23)CCC1(F)F` [Compound 176, (S)-5-chloro-2-((4,4-difluoro-1-(1,7-naphthyridine-5-carbonyl)piperidin-3-yl)amino)-N-methyl-3-nitrobenzamide]: the IC50 was below 100 nM.
To `Cc1c(F)cncc1C(=O)N1CCC2(CCN(c3c(C(=O)NC4CC(F)(F)C4)cc(Br)cc3[N+](=O)[O-])C2)C1` (centres unmarked) [Compound 76, 5-bromo-N-(3,3-difluorocyclobutyl)-2-(7-(5-fluoro-4-methylnicotinoyl)-2,7-diazaspiro[4.4]nonan-2-yl)-3-nitrobenzamide] belongs 1000 to 10000 nM; to `CNC(=O)c1cc(Cl)cc([N+](=O)[O-])c1N[C@H]1CN(C(=O)c2cncc3cnccc23)CCC1(F)F` [Compound 175, (S)-5-chloro-2-((4,4-difluoro-1-(2,7-naphthyridine-4-carbonyl)piperidin-3-yl)amino)-N-methyl-3-nitrobenzamide], below 100 nM.
Turning to `O=C(N[C@@H]1CCNC1)c1cc(Br)cc(C(F)(F)F)c1N[C@H]1CN(C(=O)c2cncc3ccccc23)CCC1(F)F` [Compound 160, 5-bromo-2-[[(3S)-4,4-difluoro-1-(isoquinoline-4-carbonyl)-3-piperidyl]amino]-N-[(3R)-pyrrolidin-3-yl]-3-(trifluoromethyl)benzamide], the IC50 was below 100 nM.
To `NNC(=O)c1cc(Br)cc([N+](=O)[O-])c1N[C@@H]1CCCC[C@@H]1NC(=O)c1cncc2ccccc12` [Compound 54, N-((1S,2R)-2-((4-bromo-2-(hydrazinecarbonyl)-6-nitrophenyl)amino)cyclohexyl)isoquinoline-4-carboxamide] belongs 1000 to 10000 nM.
`CNC(=O)c1cc(Br)cc([N+](=O)[O-])c1N[C@H]1CN(C(=O)C2CC(=O)NC(=O)C2)CCC1(F)F` [Compound 100, (S)-5-bromo-2-((1-(2,6-dioxopiperidine-4-carbonyl)-4,4-difluoropiperidin-3-yl)amino)-N-methyl-3-nitrobenzamide]: the IC50 lay in the range of 100 to 1000 nM.
As for `CNC(=O)c1cc(Br)cc([N+](=O)[O-])c1N[C@H]1CN(C(c2cncc3ccccc23)C(F)(F)F)CCC1(F)F` (some centres unmarked) [Compound 140, 5-bromo-2-(((35)-4,4-difluoro-1-(2,2,2-trifluoro-1-(isoquinolin-4-yl)ethyl)piperidin-3-yl)amino)-N-methyl-3-nitrobenzamide], the IC50 is at least 10000 nM.
As for `CNC(=O)c1cc(Br)cc([N+](=O)[O-])c1N1CC[C@H](CNC(=O)c2cncc3ccccc23)C1` [Compound 25, (R)-N-((1-(4-bromo-2-(methylcarbamoyl)-6-nitrophenyl)pyrrolidin-3-yl)methyl)isoquinoline-4-carboxamide], the IC50 was in the range of 100 to 1000 nM.
As for `O=C(c1cc(Br)cc(C(F)(F)F)c1N[C@H]1CN(C(=O)c2cncc3cccnc23)CCC1(F)F)N1CC(O)C1` [Compound 110, (S)-(5-bromo-2-((4,4-difluoro-1-(1,6-naphthyridine-8-carbonyl)piperidin-3-yl)amino)-3-(trifluoromethyl)phenyl)(3-hydroxyazetidin-1-yl)methanone], the IC50 was below 100 nM.
On to `CN(C)C(=O)c1cc(Cl)cc([N+](=O)[O-])c1N[C@H]1CN(C(=O)c2cncc3ccccc23)CC[C@@H]1F` [Compound 177], for which the IC50 is below 100 nM.
Take `O=C(N[C@@H]1CCOC1)c1cc(Br)cc([N+](=O)[O-])c1N[C@H]1CN(C(=O)c2cncc3ccccc23)CC1(F)F` [Compound 163, 5-bromo-2-(((S)-4,4-difluoro-1-(isoquinoline-4-carbonyl)pyrrolidin-3-yl)amino)-3-nitro-N-((R)-tetrahydrofuran-3-yl)benzamide]: the IC50 was below 100 nM.
Take `O=C(NCC(F)(F)F)c1cc(Br)cc([N+](=O)[O-])c1N[C@H]1CN(C(=O)c2cncc3ccccc23)CCC1(F)F` [Compound 148, (S)-5-bromo-2-((4,4-difluoro-1-(isoquinoline-4-carbonyl)piperidin-3-yl)amino)-3-nitro-N-(2,2,2-trifluoroethyl) benzamide]: the IC50 was below 100 nM.
Consider `CC1(NC(=O)c2cc(Cl)cc([N+](=O)[O-])c2N[C@H]2CN(C(=O)c3cncc4ccccc34)CCC2(F)F)CC1` [Compound 152, (S)-5-chloro-2-((4,4-difluoro-1-(isoquinoline-4-carbonyl)piperidin-3-yl)amino)-N-(1-methylcyclopropyl)-3-nitrobenzamide], for which the IC50 was below 100 nM.
For the compound `CNC(=O)c1cc(Br)cc([N+](=O)[O-])c1N[C@@H]1CN(C(C)=O)CC[C@@H]1NC(=O)c1cncc2ccccc12` [Compound 90, N-((3R, 4S)-1-acetyl-3-((4-bromo-2-(methylcarbamoyl)-6-nitrophenyl)amino)piperidin-4-yl)isoquinoline-4-carboxamide], the IC50 lay within 1000 to 10000 nM.
In the case of `CNC(=O)c1cc(Br)cc([N+](=O)[O-])c1N[C@H]1CN(C(=O)c2cc(=O)[nH]c3ccccc23)CCC1(F)F` [Compound 103, (S)-5-bromo-2-((4,4-difluoro-1-(2-oxo-1,2-dihydroquinoline-4-carbonyl)piperidin-3-yl)amino)-N-methyl-3-nitrobenzamide], the IC50 was below 100 nM.
The figure for `COC1CN(C(=O)c2cc(Br)cc(C(F)(F)F)c2N[C@H]2CN(C(=O)c3cncc4ccccc34)CCC2(F)F)C1` [Compound 172, (S)-(5-bromo-2-((4,4-difluoro-1-(isoquinoline-4-carbonyl)piperidin-3-yl)amino)-3-(trifluoromethyl)phenyl)(3-methoxyazetidin-1-yl)methanone] is below 100 nM; for `COC1CN(C(=O)c2cc(Br)cc([N+](=O)[O-])c2N[C@H]2CN(C(=O)c3cncc4ccccc34)CCC2(F)F)C1` [Compound 38, (S)-(5-bromo-2-((4,4-difluoro-1-(isoquinoline-4-carbonyl)piperidin-3-yl)amino)-3-nitrophenyl)(3-methoxyazetidin-1-yl)methanone] it is below 100 nM; for `C[C@@H](NC(=O)c1cc(Br)cc([N+](=O)[O-])c1N1CCC2(CN(C(=O)c3cncc4ccccc34)CC2(F)F)C1)C(F)(F)F` (stereo partly drawn) [Compound 78, 5-bromo-2-(9,9-difluoro-7-(isoquinoline-4-carbonyl)-2,7-diazaspiro[4. 4]nonan-2-yl)-3-nitro-N-((R)-1,1,1-trifluoropropan-2-yl)benzamide] it is below 100 nM.
To `CN(C)C(=O)c1cc(Br)cc([N+](=O)[O-])c1N[C@H]1CN(C(=O)c2cncc3ccccc23)CC1(F)F` [Compound 161, (S)-5-bromo-2-((4,4-difluoro-1-(isoquinoline-4-carbonyl)pyrrolidin-3-yl)amino)-N, N-dimethyl-3-nitrobenzamide] belongs below 100 nM; to `CNC(=O)c1cc(Br)cc([N+](=O)[O-])c1NC(C(C)C)C1CN(C(=O)c2cncnc2)C1` (centres unmarked) [Compound 71, 5-bromo-N-methyl-2-((2-methyl-1-(1-(pyrimidine-5-carbonyl)azetidin-3-yl)propyl)amino)-3-nitrobenzamide], 1000 to 10000 nM.
To `CNC(=O)c1cc(Br)cc([N+](=O)[O-])c1Nc1ccccc1NC(=O)c1cncc2ccccc12` [Compound 131, N-(2-((4-bromo-2-(methylcarbamoyl)-6-nitrophenyl)amino)phenyl) isoquinoline-4-carboxamide] belongs at least 10000 nM.
